Key:
[1] = system: AMPA receptor subunit GluR2; experiment: CDKL5 gene silencing experiment, Western blotting of GluR2 and GluR2 phospho-Ser880 in primary hippocampal cultures; assay type: cell-based, mouse; conditions: CDKL5-silenced hippocampal neurons
[2] = system: AMPA receptor subunit GluR2; experiment: CDKL5 gene silencing experiment, immunofluorescence of cell-surface expressed GluR2 in primary hippocampal cultures; assay type: cell-based, mouse; conditions: 10 uM on alternate days from DIV11 to DIV18 (DIV11-13-15-17); CDKL5-silenced hippocampal neurons
Cdkl5 knockout mice = experiment: Rotarod assessment of motor coordination in Cdkl5 knockout mice; assay type: in vivo
Text: The generation of Cdkl5 knockout mice and rotarod assessment of motor coordination could be carried out following the method described in Wang, I. -T. J et al. (2012) PNAS 109: 21516-21521, as follows.

[3] = 10 uM on alternate days from DIV11 to DIV18 (DIV11-13-15-17)
[4] = 10 μM on alternate days from DIV15-18 (DIV15-17)

SMILES: CN1c2ccccc2C(NCCCCOCC(=O)O)c2ccc(Cl)cc2S1(=O)=O.Cl (stereo not drawn) [TIOX, 2-(4-((3-chloro-6-methyl-5,5-dioxido-6,11-dihydrodibenzo[c,f][1,2]thiazepin-11-yl)amino)butoxy)acetic acid, HCl salt]
- effect of CDKL5 silencing on expression of the AMPA receptor subunit GluR2 (Western blotting) [1, 3]: reversed the effect of CDKL5 silencing
- effect of CDKL5 silencing on phosphorylated GluR2 (phosphorylation at serine-880) (Western blotting) [1, 3]: reversed the effect of CDKL5 silencing
- effect of CDKL5 silencing on expression of the AMPA receptor subunit GluR2 (Western blotting) [1, 4]: reversed the effect of CDKL5 silencing
- effect of CDKL5 silencing on phosphorylated GluR2 (phosphorylation at serine-880) (Western blotting) [1, 4]: reversed the effect of CDKL5 silencing

SMILES: CN1c2ccccc2C(NCCCCCCC(=O)O)c2ccc(Cl)cc2S1(=O)=O.O=S(=O)(O)O (stereo not drawn) [tianeptine sulphate]
- effect of CDKL5 silencing on expression of the AMPA receptor subunit GluR2 (Western blotting) [1, 3]: reversed the effect of CDKL5 silencing
- effect of CDKL5 silencing on phosphorylated GluR2 (phosphorylation at serine-880) (Western blotting) [1, 3]: reversed the effect of CDKL5 silencing
- effect of CDKL5 silencing on expression of GluR2 in terms of number of puncta (immunofluorescence) [2]: reversed the effect of CDKL5 silencing

SMILES: CN1c2ccccc2C(NCCCCCCC(=O)O)c2ccc(Cl)cc2S1(=O)=O (stereo not drawn) [Tianeptine, 7-[(3-chloro-6,1′-dihydro-6-methyl-dibenzo[c,f][1,2]thiazepin-11-yl)amino]heptanoic acid S,S-dioxide]
- time spent on the rotarod before falling (Cdkl5 knockout mice; Cdkl5 knockout mice treated before onset of motor deficits, at 3 weeks of age, relative to untreated mice): increase the time spent on the rotarod before falling
- rotarod scores (motor coordination and balance) (Cdkl5 knockout mice; Cdkl5 knockout mice treated from 6 weeks of age for 4 weeks, after onset of motor deficits, versus vehicle): higher than scores for Cdkl5 knockout mice given vehicle but are below WT values

From patent US20220265676A1, “[…] DIBENZO[…] COMPOUNDS FOR USE IN THE THERAPY OF CDKL5 DISORDER” (Healx Limited, priority 2016, published 2022)
